The results in this text go back to patent US20240041898A9, “NEUROSTEROIDS AND ENANTIOMERS THEREOF FOR THE PREVENTION AND TREATMENT OF NEURODEGENERATIVE CONDITIONS” (priority 2019, published 2024).

Where two headings read alike, the source gives them in different places.

For data set [1], the system named is pressure-loaded ex vivo rat retinas. Type of data set: cell-based. Conditions: for retinal morphology with 3-MA alone: 10 mM. On the procedure:
(§1) Rat ex vivo Eyecup Preparation—Rat ex vivo eyecups were prepared from 28-32 day old male Sprague-Dawley rats (Charles River Laboratories International Inc., Wilmington, MA). The anterior half of the enucleated eyes was carefully removed to make eyecup preparations. Eyecups were placed at the bottom of a 100 ml glass beaker filled with aCSF (artificial cerebrospinal fluid) containing (in mM): 124 NaCl, 5 KCl, 2 MgSO4, 2 CaCl2, 1.25 NaH2PO4, 22 NaHCO3, and 10 glucose, and incubated at 30° C. for 24 hours using a closed pressure-loading system (FIG. 1C). pH was maintained at 7.35 to 7.40. In the closed-pressure system, a glass beaker with the eyecup was placed at the bottom of an acrylic pressure chamber (2,000 ml volume). A 95% O2-5% CO2 gas mixture was delivered through disposable plastic tubing with an infusion valve and a control dial on the lid of the pressure chamber and an air filter (Cat #SLGP033RS, Merck Millipore, Billerica, MA). The plastic tubing delivering the gas terminated 1 cm above the bottom of the beaker.
(§2) Acutely prepared eyecups were incubated in gassed aCSF for at least 1 h at 30° C. before pressure loading. In some experiments, AlloP (1 μM), ent-AlloP (1 μM), and 3-MA (10 mM) were dissolved in aCSF at the time of experiment and administered by bath perfusion. Eyecup preparations were treated with these drugs for 1 h at 30° C. before pressure loading. For pressure loading, the 95% O2-5% CO2 gas mixture was infused until the pressure reading given by a manometer reached the appropriate level. The pressure was then locked by adjusting the control dial of the effusion valve, and monitored continuously for 24 h at 30° C.
Data analysis of morphometry—The middle portion of the retina was examined, greater than 1,200 μm away from the center of the optic disc along the inner limiting membrane (ILM). The nerve fiber layer thickness (NFLT) was measured by light microscopy along 5 lines perpendicular to the pigment epithelium at a distance of 15 μm from each other around 1,200 μm away from the center of the optic disc. The average NFLT was determined in 9 different light micrographs taken from 5 eyecup samples in each condition, divided by total retinal thickness, and mean±standard deviation (%) was analyzed and compared with control.
The density of degenerated cells characterized by nuclear chromatin clumping or necrosis in the GCL was determined by counting 9 fields of 500 μm length in light micrographs taken from the block of the middle retinal part 950 to 1450 μm away from the center of the optic disc.
The severity of neuronal damage was assessed by light microscopy using a neuronal damage score (NDS). The NDS was determined in 9 different light micrographs taken from 5 eyecup samples in each condition. The NDS rates neuronal damage in the inner nuclear layer (INL) and the inner plexiform layer (IPL) on a 0-4 scale with 0 signifying no neuronal damage and 4 indicating very severe damage. Criteria used in establishing the degree of neuronal damage included the extent of cytoplasmic swelling in the IPL and the number of neurons in the INL showing signs of severe cytoplasmic swelling and coarse clumping of nuclear chromatin. The highest NDS rating (4) is given when the IPL discloses apparent spongiform appearance due to dendritic swelling and when most cell bodies in the INL show severe cytoplasmic swelling and coarse clumping of nuclear chromatin. If the damage is of a lesser degree, a rating of 3 is given. NDS 2 is assigned when cell bodies in the INL are sporadically swollen. […] Fine dendritic swelling in a limited area of the IPL without damage in the INL is described by NDS 1.
NFLT, density of degenerated cells in the GCL, and NDS were determined as the measurement of 10 different areas from three eyes per experimental condition. These morphometrical parameters were assessed by three raters, who remained unaware of the experimental condition. […]

The next data set has as its system LC3-II. The data set can be described thus: Ex vivo pressure-loaded retinas, Western blot of LC3-II. Conditions: 10 mM 3-MA, 1 μM ent-AlloP, 75 mmHg. The data set is classed as cell-based, rat. On the procedure:
as §1, §2
(§3) Western Blot Analysis—At the end of each experiment, the posterior segments of the eye were placed on a flat cutting surface and immersed in ice-cold aCSF. With a surgical blade, the retina was carefully and gently detached from the sclera with a fine forceps. The isolated retinas were frozen at −80° C. Retinas were then homogenized in lysis buffer solution (CelLytic MT; Sigma-Aldrich, Inc.) with protease inhibitor cocktail (Sigma-Aldrich, Inc.), prepared according to the manufacturer's instructions. The tissue extracts were ultrasonicated and clarified by centrifugation at 12,000 g for 20 minutes at 4° C. The protein concentrations in supernatants were assayed (Quant-iT assay kit; Invitrogen Corp., Carlsbad, CA). Twenty micrograms of retinal extract were subjected to SDS polyacrylamide gel electrophoretic analysis. The proteins were then transferred to a PVDF. Immunoblots by polyclonal rabbit anti-LC3B antibody (MBL Life Science) or anti-SQSTMl/p62 mouse monoclonal antibody (Abcam) were visualized using WesternBreeze Chemiluminescent Immunodetection system (Invitrogen) with the exposure time to autoradiograph film (MXJB Plus; Kodak, Rochester, NY) adjusted to avoid over- or undersaturation. Precision Plus Protein™ Western Standards (Bio-Rad, Hercules, CA) followed by Precision Protein™ strep Tactin-AP conjugate (Bio-Rad) was used for a molecular marker of LC3. MagicMark™ XP Western Protein Standard (Invitrogen, Carlsbad, CA) was used for a molecular marker of p62. Immunoblot data are normalized to β-actin levels in the same sample.
The density of Western blot bands was quantified using Image-Pro Plus software. Quantification was adjusted to protein expression at 10 mmHg after normalization to the β-actin band at each pressure, and the relative gray-scale value was calculated by densitometric analysis of the obtained bands. At least four independent experiments were performed for each condition, and the results are presented as relative units numerically. Differences in expression levels were evaluated using Wilcoxon Rank-Sum Test, Tukey's or Dunnett's multiple comparison test. Sample numbers were four to five per each experimental condition.
In general terms: Immunoblotting shows a protein as a band on a membrane.

In a further data set the test system is p62. Put plainly: Ex vivo pressure-loaded retinas, Western blot of p62. Type of data set: cell-based, rat. Conditions: 10 mM 3-MA, 1 μM ent-AlloP, 75 mmHg. On the procedure: as §1, §2
as §3, with “MagicMark™ XP Western Protein Standard (Invitrogen, Carlsbad, CA) was used for a molecular marker of p62. Immunoblot data are normalized to β-actin levels in the same sample.” left out
The density of Western blot bands was quantified using Image-Pro Plus software. Quantification was adjusted to protein expression at 10 mmHg after normalization to the β-actin band at each pressure, and the relative gray-scale value was calculated by densitometric analysis of the obtained bands. […] Differences in expression levels were evaluated using Wilcoxon Rank-Sum Test, Tukey's or Dunnett's multiple comparison test. […]

`Cn1cnc(N)c2ncnc1-2` [3-MA, 3-methyladenine]: the “effect of 3-MA on neuroprotection by AlloP” value in data set [1] (10 mM 3-MA + 1 μM AlloP, 75 mmHg) is listed as “did not alter neuroprotection by AlloP”. Moreover, the “effect of 3-MA on the effects of ent-AlloP” value in data set [1] (10 mM 3-MA + 1 μM ent-AlloP, 75 mmHg) is listed as “dampened the effects of ent-AlloP”. Moreover, the “retinal morphology with 3-MA alone” value in data set [1] (10 mmHg) and in data set [1] (75 mmHg) was “neurodegenerative” in each case. Also, the “effect of 3-MA on upregulation of LC3-II levels induced by ent-AlloP” value in the data set with LC3-II is reported as “dampened”. Besides, the “effect of 3-MA on the decrease of p62 levels induced by ent-AlloP” value with p62 is listed as “reversed”.

Regarding picrotoxin, in data set [1] (1 μM picrotoxin + 1 μM AlloP, hyperbaric conditions (75 mmHg)), the “effect of picrotoxin on the neuroprotective effect of AlloP” value was “overcame the neuroprotective effect of AlloP”. Also, the “effect of picrotoxin on the effects of ent-AlloP” value in data set [1] (1 μM picrotoxin + 1 μM ent-AlloP, 75 mmHg) was “did not alter the effects of ent-AlloP”.
